According to US6222035A, “[1,2,4] triazolo [1,5-C] pyrimidine derivatives” (Kyowa Hakko Kogyo Co., Ltd., priority 1997, dated 2001):
Counter-ions that a name gives are not always drawn.

How the values were obtained:
adenosine A2A receptor = target: T1, adenosine A2A receptor (Rattus norvegicus, UniProt P30543); test: Adenosine receptor binding activity (adenosine A2A receptor binding test), 3H-CGS 21680 binding; conditions: 2 h, read-out: A2A receptor inhibition ratio (%); for inhibition at 0.1 µM: 10^-7 M; for inhibition at 0.01 µM: 10^-8 M
T1 construct: from tissue; host or cells: rat corpus striatum, washed membrane suspension
T1 sequence (P30543 whole entry): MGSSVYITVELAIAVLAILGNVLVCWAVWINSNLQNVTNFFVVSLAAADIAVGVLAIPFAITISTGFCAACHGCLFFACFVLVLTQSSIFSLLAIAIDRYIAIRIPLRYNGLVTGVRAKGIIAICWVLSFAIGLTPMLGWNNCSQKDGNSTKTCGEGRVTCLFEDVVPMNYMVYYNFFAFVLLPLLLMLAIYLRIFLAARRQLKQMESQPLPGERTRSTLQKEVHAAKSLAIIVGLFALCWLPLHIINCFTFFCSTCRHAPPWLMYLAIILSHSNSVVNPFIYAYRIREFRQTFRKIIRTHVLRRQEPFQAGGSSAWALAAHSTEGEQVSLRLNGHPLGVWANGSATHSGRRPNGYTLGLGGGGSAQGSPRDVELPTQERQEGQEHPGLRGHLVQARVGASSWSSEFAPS
Protocol: Adenosine receptor binding activity (adenosine A2A receptor binding test) This test was carried out by slightly modifying the method of Bruns et al. [Molecular Pharmacology, 29: 331 (1986)].
Corpus striatum of a rat was suspended in an ice-cooled 50 mM tris(hydroxymethyl)aminomethane hydrochloride (hereinafter referred to as "Tris-HCl") buffer (pH 7.7) using Polytron Homogenizer (manufactured by Kinematica Co.). The suspension was centrifuged (50,000×g, 10 minutes), and the obtained precipitate was re-suspended in the same amount of 50 mM Tris-HCl buffer. The suspension was centrifuged under the same conditions, and the final precipitate was suspended in 50 mM Tris-HCl [containing 10 mM magnesium chloride and 0.02 unit/mg tissue of adenosine deaminase (manufactured by Sigma Co.)] to give a tissue concentration of 5 mg (wet weight)/ml.
To 1 ml of the tissue suspension thus prepared were added 50 μl of tritium-labeled CGS 21680 {^3 H-2-[p-(2-carboxyethyl)phenethylamino]-5'-N-ethylcarboxamido)adenosine: 40 Ci/mmol; manufactured by New England Nuclear Co.[The Journal of Pharmacology and Experimental Therapeutics, 251: 888 (1989)]} (final concentration:4.0 nM) and 50 μl of a test compound. The resulting mixture was allowed to stand for 120 minutes at 25° C., and then rapidly filtered by suction through a glass fiber filter (GF/C, manufactured by Whatman Co.) The filter was immediately washed three times with […] of an ice-cooled 50 mM Tris-HCl buffer, and transferred to a vial, a scintillator (EX-H , manufactured by Wako Pure Chemical Industries, Ltd.) was added thereto, and the radioactivity on the filter was determined with a liquid scintillation counter (manufactured by Packard Instrument Co.) […]
The inhibition ratio of the test compound against the A2A receptor binding (^3 H-CGS 21680 binding) was calculated by the following equation:
Inhibition ratio (%)={1-(Amount of the binding in the presence of the test compound-Amount of the nonspecific binding)/(Amount of the total binding-Amount of the nonspecific binding)}×100
(Note) Amount of the total binding means the amount of radioactivity of ^3 H-CGS 21680 bound in the absence of the test compound. Amount of the nonspecific binding means the amount of radioactivity of ^3 H-CGS 21680 bound in the presence of 100 μM cyclopentyladenosine (CPA, manufactured by Sigma Co.) Amount of the binding in the presence of the test compound means the amount of radioactivity of ^3 H-CGS 21680 bound in the presence of the test compound at various levels of concentrations.

[1] = system: CGS 21680-induced catalepsy in mice; test: Activity on CGS 21680-induced Catalepsy; assay type: in vivo, mouse (male ddY); conditions: 10 mg/kg oral; for Total score (catalepsy): 10 animals, maximum 50 points, control 48; for Number of Animals showing remission: catalepsy score 4 points or less in 10 cases; for inhibition in vivo at 10 mg/kg: Mus musculus, CGS 21680-induced catalepsy, read-out: Remission ratio (%)
Protocol: Activity on CGS 21680-induced Catalepsy
Parkinson's disease is motor deficit based on the degeneration and cell death of the nigrostriatal dopaminergic neuron. […] [Journal of Neuroscience, 16: 605 (1996)]. Accordingly, it is considered that adenosine A2A receptor agonists positively regulate the output of the striopallidal GABAergic neurons and, as a result, catalepsy is induced by the administration of CGS 21680.
This test was carried out using 10 animals per group of male ddY mice of 5 week age (22 to 25 g in body weight, Japan SLC). CGS 21680 (manufactured by RBI) was dissolved in a physiological saline (manufactured by Otsuka Pharmaceutical), and 10 μg/20 μl of the solution was injected into mouse intracerebro-ventricle. Test compounds were used by suspending them in distilled water containing 0.3% of polyoxyethylene(20)sorbitan monooleate (hereinafter referred to as "Tween 80") (manufactured by Otsuka Pharmaceutical). […] One hour after the administration of the test compound, only forelimbs or only hindlimbs of each animal were laid on a vertically arranged stand made of acryl, having a size of 4.5 cm in height and 1.0 cm in width, to measure catalepsy symptoms. All of the compounds were administered orally in a dose of 10 mg/kg.
The effect was judged by total catalepsy scores of 10 animals in one group (the maximum is 50 points). When the total score was 40 points or less, the activity of drugs was judged positive. The number of animals showing remission of catalepsy was expressed by the number of cases in which the catalepsy score was 4 points or less in 10 cases. The catalepsy remission ratio was expressed as the percentage of the total score in the test compound-administered group to the total score in the control group.

SMILES	inhibition at 0.1 µM (adenosine A2A receptor)	Total score (catalepsy) [1]	Number of Animals showing remission [1]	inhibition in vivo at 10 mg/kg [1]	inhibition at 0.01 µM (adenosine A2A receptor)
C[C@@H]1CN(c2cc3nc(-c4ccco4)nn3c(N)n2)C[C@H](C)N1CCCc1ccccc1 [Compound 119, 5-Amino-7-(cis-3,5-dimethyl-4-(3-phenylpropyl)piperazinyl)-2-(2-furyl)[1,2,4]triazolo[1,5-c]pyrimidine]	51%	–	–	–	–
Nc1nc(SCc2ccccn2)cc2nc(-c3ccco3)nn12 [Compound 182, 5-Amino-2-(2-furyl)-7-(2-picolylthio)[1,2,4]triazolo[1,5-c]pyrimidine]	82%	–	–	–	–
Cc1ccc(CSc2cc3nc(-c4ccco4)nn3c(N)n2)cc1 [Compound 186, 5-Amino-2-(2-furyl)-7-(4-methylbenzylthio)[1,2,4]triazolo[1,5-c]pyrimidine]	52%	–	–	–	–
Nc1nc(SCc2ccccc2[N+](=O)[O-])cc2nc(-c3ccco3)nn12 [Compound 194, 5-Amino-2-(2-furyl)-7-(2-nitrobenzylthio)[1,2,4]triazolo[1,5-c]pyrimidine]	75%	–	–	–	–
C=CCN1CCN(c2cc3nc(-c4ccco4)nn3c(N)n2)CC1 [Compound 124, 5-Amino-7-(4-allylpiperazinyl)-2-(2-furyl)[1,2,4]triazolo[1,5-c]pyrimidine]	59%	12	9	76%	–
COc1ccc(CCN2CCN(c3cc4nc(-c5ccco5)nn4c(N)n3)CC2)cc1OC [Compound 85, 5-Amino-7-(4-(2-(3,4-dimethoxyphenyl)ethyl)piperazinyl)-2-(2-furyl)[1,2,4]triazolo[1,5-c]pyrimidine]	80%	–	–	–	–
CC(C)C(=O)c1cnc(N)n2nc(-c3ccco3)nc12 [Compound 153, 5-Amino-8-(1-oxo-2-methylpropyl)-2-(2-furyl)[1,2,4]triazolo[1,5-c]pyrimidine]	48%	10	9	80%	–
CC(CO)N1CCN(c2cc3nc(-c4ccco4)nn3c(N)n2)CC1 (racemic) [Compound 111, (±)-5-Amino-2-(2-furyl)-7-(4-((2-hydroxy-1-methyl)ethyl)piperazinyl)[1,2,4]triazolo[1,5-c]pyrimidine]	52%	–	–	–	–
CCC(=O)c1cnc(N)n2nc(-c3ccco3)nc12 [Compound 158, 5-Amino-2-(2-furyl)-8-propionyl[1,2,4]triazolo[1,5-c]pyrimidine]	92%	23	8	52%	–
COc1ccc(CCCN2CCN(c3cc4nc(-c5ccco5)nn4c(N)n3)CC2)cc1OC [Compound 86, 5-Amino-7-(4-(3-(3,4-dimethoxyphenyl)propyl)piperazinyl)-2-(2-furyl)[1,2,4]triazolo[1,5-c]pyrimidine]	83%	13	9	72%	–
COCCN1[C@H](C)CN(c2cc3nc(-c4ccco4)nn3c(N)n2)C[C@@H]1C [Compound 117, 5-Amino-7-(cis-3,5-dimethyl-4-(2-methoxyethyl)piperazinyl)-2-(2-furyl)[1,2,4]triazolo[1,5-c]pyrimidine]	38%	–	–	–	–
Nc1nc(N2CCN(Cc3ccccc3Cl)CC2)cc2nc(-c3ccco3)nn12 [Compound 68, 5-Amino-7-[4-(2-chlorobenzyl)piperazinyl]-2-(2-furyl)[1,2,4]triazolo[1,5-c]pyrimidine]	90%	–	–	–	59%
COc1ccc(CN2CCN(c3cc4nc(-c5ccco5)nn4c(N)n3)CC2)cc1OC [Compound 67, 5-Amino-7-[4-(3,4-dimethoxybenzyl)piperazinyl]-2-(2-furyl)[1,2,4]triazolo[1,5-c]pyrimidine]	77%	–	–	–	39%
Nc1nc(N2CCN(Cc3cccc(Cl)c3)CC2)cc2nc(-c3ccco3)nn12 [Compound 69, 5-Amino-7-[4-(3-chlorobenzyl)piperazinyl]-2-(2-furyl)[1,2,4]triazolo[1,5-c]pyrimidine]	62%	–	–	–	44%
COc1cc(OC)cc(Oc2cc3nc(-c4ccco4)nn3c(N)n2)c1 [Compound 33, 5-Amino-7-(3,5-dimethoxyphenoxy)-2-(2-furyl)[1,2,4]triazolo[1,5-c]pyrimidine]	86%	–	–	–	46%
Nc1nc(N2CCN(c3nc4ccccc4o3)CC2)cc2nc(-c3ccco3)nn12 [Compound 94, 5-Amino-7-(4-(2-benzoxazolyl)piperazinyl)-2-(2-furyl)[1,2,4]triazolo[1,5-c]pyrimidine]	37%	–	–	–	–
Nc1nc(N2CCN(CCCOCc3ccccc3)CC2)cc2nc(-c3ccco3)nn12 [Compound 102, 5-Amino-7-(4-(3-benzyloxypropyl)piperazinyl)-2-(2-furyl)[1,2,4]triazolo[1,5-c]pyrimidine hydrochloride]	72%	–	–	–	–
CC(c1ccccc1)N1CCN(c2cc3nc(-c4ccco4)nn3c(N)n2)CC1 (stereo not shown) [Compound 73, 5-Amino-2-(2-furyl)-7-[4-(1-phenylethyl)piperazinyl][1,2,4]triazolo[1,5-c]pyrimidine]	86%	–	–	–	51%
COc1ccc(CNc2nc(Sc3ccccc3)cc3nc(-c4ccco4)nn23)cc1OC [Compound 10, 5-(3,4-Dimethoxybenzylamino)-2-(2-furyl)-7-phenylthio[1,2,4]triazolo[1,5-c]pyrimidine]	54%	–	–	–	16%
Nc1nc(N2CCN(Cc3ccc4c(c3)OCO4)CC2)cc2nc(-c3ccco3)nn12 [Compound 66, 5-Amino-2-(2-furyl)-7-(4-piperonylpiperazinyl)[1,2,4]triazolo[1,5-c]pyrimidine]	79%	–	–	–	20%
Nc1nc(N2CCN(CC3CCCCC3)CC2)cc2nc(-c3ccco3)nn12 [Compound 72, 5-Amino-7-(4-cyclohexylmethylpiperazinyl)-2-(2-furyl)[1,2,4]triazolo[1,5-c]pyrimidine]	66%	–	–	–	10%
Nc1nc(SCc2ccccc2)cc2nc(-c3ccco3)nn12 [Compound 183, 5-Amino-7-benzylthio-2-(2-furyl)[1,2,4]triazolo[1,5-c]pyrimidine]	82%	–	–	–	–
Nc1nc(N2CCN(Cc3ccncc3)CC2)cc2nc(-c3ccco3)nn12 [Compound 71, 5-Amino-2-(2-furyl)-7-[4-(4-picolyl)piperazinyl][1,2,4]triazolo[1,5-c]pyrimidine]	73%	–	–	–	29%
Nc1nc(N2CCN(Cc3cccnc3)CC2)cc2nc(-c3ccco3)nn12 [Compound 70, 5-Amino-2-(2-furyl)-7-[4-(3-picolyl)piperazinyl][1,2,4]triazolo[1,5-c]pyrimidine]	66%	–	–	–	17%
